Source: US20250361230A1, “LATS Inhibitors and Uses Thereof” (The USA, as Represented by the Secretary, Dept. of Heath …, priority 2022, published 2025)

Columns and labels:
Format in all cases: biochemical
AKT = AKT (Homo sapiens, UniProt P31749); assay: RBC HotSpot kinase assay (33P-ATP, P81 filter-binding), AKT; conditions: Table 28, biochemical kinase assay; read-out: AKT IC50
Method in brief: (§1)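 Kinase in Hepes pH 7.5 buffer with Mg2+, EGTA, Brij35, BSA, vanadate, DTT and 1% DMSO, plus required cofactors and substrate, was preincubated 20 min at room temperature with compound. Reaction was started with 33P-ATP and run 2 h, then detected by P81 filter binding. IC50 (nM) came from 10-point singlet curves.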

LATS2 = biological target: T1, LATS2 (Homo sapiens, UniProt Q9NRM7); assay: RBC HotSpot kinase assay (33P-ATP, P81 filter-binding), LATS2; conditions: Table 28, biochemical kinase assay; read-out: LATS2 IC50
T1 sequence (Q9NRM7 1-1088): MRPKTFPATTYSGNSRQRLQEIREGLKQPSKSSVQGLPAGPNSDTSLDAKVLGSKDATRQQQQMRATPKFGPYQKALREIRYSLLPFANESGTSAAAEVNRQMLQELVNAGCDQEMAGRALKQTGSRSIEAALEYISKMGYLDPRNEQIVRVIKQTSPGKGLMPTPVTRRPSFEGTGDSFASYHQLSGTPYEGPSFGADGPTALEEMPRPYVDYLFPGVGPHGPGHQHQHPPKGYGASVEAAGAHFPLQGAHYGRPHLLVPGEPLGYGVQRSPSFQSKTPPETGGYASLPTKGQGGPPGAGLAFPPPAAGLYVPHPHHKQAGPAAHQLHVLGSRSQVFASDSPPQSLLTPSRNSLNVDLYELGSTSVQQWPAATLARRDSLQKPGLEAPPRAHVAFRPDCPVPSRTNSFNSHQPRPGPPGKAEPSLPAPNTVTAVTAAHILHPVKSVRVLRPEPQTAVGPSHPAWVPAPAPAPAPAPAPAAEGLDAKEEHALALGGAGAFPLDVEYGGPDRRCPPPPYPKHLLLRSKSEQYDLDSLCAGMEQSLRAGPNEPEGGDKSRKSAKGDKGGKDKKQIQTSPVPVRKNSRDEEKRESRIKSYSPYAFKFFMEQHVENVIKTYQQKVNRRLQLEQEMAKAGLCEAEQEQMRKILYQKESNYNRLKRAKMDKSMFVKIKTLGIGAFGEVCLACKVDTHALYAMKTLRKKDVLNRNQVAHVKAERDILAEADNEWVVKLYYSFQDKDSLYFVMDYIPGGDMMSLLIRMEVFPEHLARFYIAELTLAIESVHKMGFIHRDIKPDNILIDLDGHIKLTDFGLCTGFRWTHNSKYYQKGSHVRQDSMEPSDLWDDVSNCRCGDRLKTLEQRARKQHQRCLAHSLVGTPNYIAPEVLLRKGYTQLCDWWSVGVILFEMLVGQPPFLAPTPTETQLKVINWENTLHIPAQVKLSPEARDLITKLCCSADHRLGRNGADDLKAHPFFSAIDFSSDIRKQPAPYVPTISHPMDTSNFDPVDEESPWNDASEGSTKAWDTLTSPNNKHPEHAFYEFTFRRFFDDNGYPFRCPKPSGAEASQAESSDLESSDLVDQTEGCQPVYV
Method in brief: as §1

LATS1 = biological target: T2, LATS1 (Homo sapiens, UniProt O95835); assay: RBC HotSpot kinase assay (33P-ATP, P81 filter-binding), LATS1; conditions: Table 28, biochemical kinase assay; read-out: LATS1 IC50
T2 sequence (O95835 1-1130): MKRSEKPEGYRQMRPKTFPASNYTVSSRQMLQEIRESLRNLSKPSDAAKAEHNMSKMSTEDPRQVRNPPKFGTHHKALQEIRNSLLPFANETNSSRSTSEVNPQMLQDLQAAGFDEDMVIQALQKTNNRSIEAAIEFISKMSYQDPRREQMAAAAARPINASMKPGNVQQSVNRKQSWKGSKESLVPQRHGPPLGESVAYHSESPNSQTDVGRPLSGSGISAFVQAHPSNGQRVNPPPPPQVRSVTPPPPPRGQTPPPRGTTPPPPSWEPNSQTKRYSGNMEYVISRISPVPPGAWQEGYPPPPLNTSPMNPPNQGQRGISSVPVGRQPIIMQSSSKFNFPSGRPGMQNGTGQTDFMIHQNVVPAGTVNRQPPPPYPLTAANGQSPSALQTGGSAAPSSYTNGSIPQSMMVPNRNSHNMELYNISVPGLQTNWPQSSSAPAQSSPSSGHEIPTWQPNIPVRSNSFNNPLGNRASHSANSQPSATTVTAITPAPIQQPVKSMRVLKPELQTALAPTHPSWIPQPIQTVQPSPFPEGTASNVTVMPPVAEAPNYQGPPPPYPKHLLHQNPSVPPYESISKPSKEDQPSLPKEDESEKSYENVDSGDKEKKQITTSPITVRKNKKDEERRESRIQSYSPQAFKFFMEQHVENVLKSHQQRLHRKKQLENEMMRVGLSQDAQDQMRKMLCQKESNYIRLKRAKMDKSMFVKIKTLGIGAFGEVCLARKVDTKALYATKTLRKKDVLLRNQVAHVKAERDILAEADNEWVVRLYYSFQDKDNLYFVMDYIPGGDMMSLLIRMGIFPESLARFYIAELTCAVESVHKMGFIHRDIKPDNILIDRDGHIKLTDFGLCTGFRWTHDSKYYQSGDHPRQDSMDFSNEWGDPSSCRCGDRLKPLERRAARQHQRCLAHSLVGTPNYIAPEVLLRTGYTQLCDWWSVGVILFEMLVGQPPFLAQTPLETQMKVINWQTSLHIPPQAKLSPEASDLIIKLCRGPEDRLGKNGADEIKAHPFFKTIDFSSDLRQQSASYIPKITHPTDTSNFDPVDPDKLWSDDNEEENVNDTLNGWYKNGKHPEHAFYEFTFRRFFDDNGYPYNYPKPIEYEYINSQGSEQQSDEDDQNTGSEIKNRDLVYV
Method in brief: as §1

Sequence of AKT (P31749 whole entry): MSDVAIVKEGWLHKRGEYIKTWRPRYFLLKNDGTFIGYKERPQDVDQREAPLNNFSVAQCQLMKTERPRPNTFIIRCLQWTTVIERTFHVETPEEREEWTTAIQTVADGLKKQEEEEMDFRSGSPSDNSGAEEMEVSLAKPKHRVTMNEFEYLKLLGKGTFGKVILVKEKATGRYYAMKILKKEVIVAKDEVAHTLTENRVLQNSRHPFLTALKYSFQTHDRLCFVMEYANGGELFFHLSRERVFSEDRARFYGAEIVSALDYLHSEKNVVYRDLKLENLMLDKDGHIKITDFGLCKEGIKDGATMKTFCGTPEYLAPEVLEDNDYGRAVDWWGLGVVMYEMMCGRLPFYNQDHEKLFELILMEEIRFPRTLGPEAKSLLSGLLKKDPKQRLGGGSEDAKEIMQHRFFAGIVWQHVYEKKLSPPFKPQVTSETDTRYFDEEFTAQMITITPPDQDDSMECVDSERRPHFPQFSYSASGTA

Compound	IC50 (AKT) [nM]	IC50 (LATS2) [nM]	IC50 (LATS1) [nM]
CC(C)(N)c1ccc(-c2ccnc3[nH]ccc23)cc1-c1ccccc1 [Compound 206, 2-(5-(1H-pyrrolo[2,3-b]pyridin-4-yl)-[1,1′-biphenyl]-2-yl)propan-2-amine]	1620	74.9	10.2
CC(C)(N)c1ccc(-c2ccnc3[nH]cc(Br)c23)cc1-c1ccccc1 [Compound 207, 2-(5-(3-bromo-1H-pyrrolo[2,3-b]pyridin-4-yl)-[1,1′-biphenyl]-2-yl)propan-2-amine]	267	9.6	4
CN(C)C(C)(C)c1ccc(-c2ccnc3[nH]cc(F)c23)cc1 [Compound 208, 2-(4-(3-fluoro-1H-pyrrolo[2,3-b]pyridin-4-yl)phenyl)-N,N-dimethylpropan-2-amine]	349	15	8.3
CN(C)C(C)(C)c1ccc(-c2ccnc3[nH]ccc23)cc1 [Compound 209, 2-(4-(1H-pyrrolo[2,3-b]pyridin-4-yl)phenyl)-N,N-dimethylpropan-2-amine]	1250	146	43
CC(C)(N)c1ccc(-c2ccnc3[nH]cc(Br)c23)cc1 [Compound 210, 2-(4-(3-bromo-1H-pyrrolo[2,3-b]pyridin-4-yl)phenyl)propan-2-amine]	331	4.7	24
COC(=O)c1c[nH]c2nccc(-c3ccc(C(C)(C)N)cc3)c12 [Compound 212, methyl 4-(4-(2-aminopropan-2-yl)phenyl)-1H-pyrrolo[2,3-b]pyridine-3-carboxylate]	1250	13	12
COC(=O)c1c[nH]c2nccc(-c3ccc(CN)c(C)c3)c12 [Compound 213, methyl 4-(4-(aminomethyl)-3-methylphenyl)-1H-pyrrolo[2,3-b]pyridine-3-carboxylate]	832	14.7	7.7
COC(=O)c1c[nH]c2nccc(-c3ccc(CN)c(-c4ccccc4)c3)c12 [Compound 214, methyl 4-(6-(aminomethyl)-[1,1′-biphenyl]-3-yl)-1H-pyrrolo[2,3-b]pyridine-3-carboxylate]	986	24	11
Cc1cc(-c2ccnc3[nH]cc(F)c23)ncc1CN [Compound 215, (6-(3-fluoro-1H-pyrrolo[2,3-b]pyridin-4-yl)-4-methylpyridin-3-yl)methanamine]	2840	15	4.7
COC(=O)c1c[nH]c2nccc(-c3ccc(CN)c(Cl)c3)c12 [Compound 216, methyl 4-(4-(aminomethyl)-3-chlorophenyl)-1H-pyrrolo[2,3-b]pyridine-3-carboxylate]	823	19	11
Cc1cc(-c2ccnc3[nH]ccc23)ncc1CN [Compound 217, (4-methyl-6-(1H-pyrrolo[2,3-b]pyridin-4-yl)pyridin-3-yl)methanamine]	3160	12	8.2
NCc1ccc(-c2ccnc3[nH]ccc23)nc1 [Compound 218, (6-(1H-pyrrolo[2,3-b]pyridin-4-yl)pyridin-3-yl)methanamine]	4930	130	37
CC(C)c1c[nH]c2nccc(-c3ccc(CN)c(-c4ccccc4)c3)c12 [Compound 220, (5-(3-isopropyl-1H-pyrrolo[2,3-b]pyridin-4-yl)-[1,1′-biphenyl]-2-yl)methanamine]	1010	115	236
Cc1cc(-c2ccnc3[nH]cc(F)c23)cc(C)c1CN [Compound 222, (4-(3-fluoro-1H-pyrrolo[2,3-b]pyridin-4-yl)-2,6-dimethylphenyl) methanamine]	470	31	16
C=C(C)c1c[nH]c2nccc(-c3ccc(CN)c(-c4ccccc4)c3)c12 [Compound 224, (5-(3-(prop-1-en-2-yl)-1H-pyrrolo[2,3-b]pyridin-4-yl)-[1,1′-biphenyl]-2-yl)methanamine]	1150	35	73

Second part, the molecule after the results:

IC50 (AKT) [nM]	IC50 (LATS2) [nM]	IC50 (LATS1) [nM]	Compound
> 10000	6420	≥ 10000	NCc1ccc(-c2cc(N)nc3[nH]ccc23)cc1 [Compound 225, 4-(4-(aminomethyl)phenyl)-1H-pyrrolo[2,3-b]pyridin-6-amine]
734	1.2	25.4	CC(C)(N)c1ccc(-c2ccnc3[nH]ccc23)cc1 [Compound 226, 2-(4-(1H-pyrrolo[2,3-b]pyridin-4-yl)phenyl)propan-2-amine]
3670	49.3	124	NCc1ccc(-c2ccnc3[nH]cc(-c4cccc(C(F)(F)F)c4)c23)cc1 [Compound 227, (4-(3-(3-(trifluoromethyl)phenyl)-1H-pyrrolo[2,3-b]pyridin-4-yl)phenyl) methanamine]
1020	14	34	NCc1ccc(-c2ccnc3[nH]cc(-c4cccc(Cl)c4)c23)cc1 [Compound 228, (4-(3-(3-chlorophenyl)-1H-pyrrolo[2,3-b]pyridin-4-yl)phenyl) methanamine]
6340	235	235	Cc1ccccc1-c1c[nH]c2nccc(-c3ccc(CN)cc3)c12 [Compound 229, (4-(3-(o-tolyl)-1H-pyrrolo[2,3-b]pyridin-4-yl)phenyl) methanamine]
437	144	24	COCCNc1cc(-c2ccnc3[nH]ccc23)ccc1CN [Compound 231, 2-(aminomethyl)-N-(2-methoxyethyl)-5-(1H-pyrrolo[2,3-b]pyridin-4-yl)aniline]
60.5	11.6	3.3	CC(C)c1cc(-c2ccnc3[nH]cc(Cl)c23)ccc1CN [Compound 232, (4-(3-chloro-1H-pyrrolo[2,3-b]pyridin-4-yl)-2-isopropylphenyl) methanamine]
281	35.5	5.6	CC(C)c1cc(-c2ccnc3[nH]ccc23)ccc1CN [Compound 233, (2-isopropyl-4-(1H-pyrrolo[2,3-b]pyridin-4-yl)phenyl) methanamine]
